In publication PMC12652730, “The Chemoreceptive Molecular Mechanism Underlying CSP-Mediated Recognition of Seed Elaiosome from Stemona tuberosa by Hornets” (Genes, 2025):
Where two headings read alike, the source gives them in different places.

Key:
CsasCSP16 = biological target: CsasCSP16; set-up: method as in PMID 34082360; conditions: CsasCSP16 from Carposina sasakii ref 42; cited from earlier work
VvelCSP1 = VvelCSP1 (Vespa velutina auraria, UniProt A0A384ZVP9); assay: Fluorescence competitive binding assay (1-NPN probe) with VvelCSP1
Description: (§1) Fluorescence competitive binding assays were employed to characterize the interactions between VvelCSPs and 13 volatiles shared between the elaiosomes of S. tuberosa and the cuticular hydrocarbons of honeybees. These tests were performed in 1 cm path length quartz cuvettes with an excitation wavelength of 337 nm and emission wavelength scanning from 400–450 nm. The volatiles and the fluorescent probe 1-NPN (1-N-phenylnaphthylamine), listed in Supplementary Table S2, were dissolved in methanol to prepare 100 mM stock solutions, which were then diluted to 1 mM working solutions [25]. To remove any potential endogenous ligands, the purified proteins were delipidated by three washes with an equal volume of dichloromethane (1:1 v/v). Each wash involved a 10-min incubation, and the process was followed by evaporation of the residual solvent under a gentle stream of nitrogen. Purified CSPs were resuspended in 20 mM Tris-HCl buffer (pH 7.5) to a final concentration of 2 μM. Binding parameters for CSP-NPN were determined by titration: 2 mL of CSP solution (2 μM) was titrated with 1-NPN (final concentrations: 2−24 μM). Maximum fluorescence intensity was recorded, and the dissociation constant was calculated. […] After incubation in the dark for 2 min, fluorescence quenching was measured. Half-maximal inhibitory concentration (IC50) values for volatiles were calculated from the competition curves, and their binding constants (Ki) were subsequently derived. The presented data, including IC50 and Ki values, originate from a single experiment under uniform conditions to ensure comparability (Supplementary Table S3).

VvelCSP4 = assay: Fluorescence competitive binding assay (1-NPN probe) with VvelCSP4; set-up: species or system Vespa velutina auraria
Description: as §1

Chain of VvelCSP1 (A0A384ZVP9 entry or part of it): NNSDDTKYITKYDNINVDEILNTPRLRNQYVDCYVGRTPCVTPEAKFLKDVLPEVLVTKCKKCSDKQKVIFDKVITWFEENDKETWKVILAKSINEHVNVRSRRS

Compound | Raw fluorescence intensity (VvelCSP1; VvelCSP1, chemical 0.5 μM) | Raw fluorescence intensity (VvelCSP1; VvelCSP1, chemical 1 μM) | Raw fluorescence intensity (VvelCSP1; VvelCSP1, chemical 2 μM) | Raw fluorescence intensity (VvelCSP1; VvelCSP1, chemical 4 μM) | Raw fluorescence intensity (VvelCSP1; VvelCSP1, chemical 6 μM) | Raw fluorescence intensity (VvelCSP1; VvelCSP1, chemical 8 μM) | Raw fluorescence intensity (VvelCSP1; VvelCSP1, chemical 12 μM) | Raw fluorescence intensity (VvelCSP1; VvelCSP1, chemical 16 μM) | Raw fluorescence intensity (VvelCSP4; VvelCSP4, chemical 0.5 μM) | Raw fluorescence intensity (VvelCSP4; VvelCSP4, chemical 1 μM) | Raw fluorescence intensity (VvelCSP4; VvelCSP4, chemical 2 μM) | Raw fluorescence intensity (VvelCSP4; VvelCSP4, chemical 4 μM) | Raw fluorescence intensity (VvelCSP4; VvelCSP4, chemical 6 μM) | Raw fluorescence intensity (VvelCSP4; VvelCSP4, chemical 8 μM) | Raw fluorescence intensity (VvelCSP4; VvelCSP4, chemical 12 μM) | Raw fluorescence intensity (VvelCSP4; VvelCSP4, chemical 16 μM) | further results
CCCCCCCCCCCCCCC [pentadecane] |  |  |  |  |  |  |  |  |  |  |  |  |  |  |  |  | Ki (CsasCSP16): 3.5 µM
CCCCCCCCCCCCCCCCCCCCCCCCCCC [Heptacosane] | 222.51 | 205.55 | 159.00 | 136.99 | 130.11 | 123.81 | 117.37 | 115.92 | 218.17 | 194.71 | 172.10 | 154.91 | 140.68 | 130.60 | 128.65 | 125.52 | IC50 (VvelCSP4; VvelCSP4 2 μM, 1-NPN 1 μM, Tris-HCl pH 7.5, single experiment, read-out: IC50 (ligand concentration displacing 50% of the fluorescence intensity of the CSPs/NPN complex)): 6.2 µM; Ki (VvelCSP4; VvelCSP4, derived from IC50, read-out: Ki (dissociation constant)): 4.6 µM
CCCCCCCCCCCCCCCCCCCC [Eicosane] | 246.85 | 234.09 | 206.27 | 199.36 | 183.72 | 175.07 | 172.10 | 170.22 | 192.14 | 182.38 | 164.23 | 154.96 | 139.00 | 133.35 | 128.24 | 125.62 | IC50 (VvelCSP4; VvelCSP4, read-out: IC50 (μM), no binding symbol): > 24 µM; Ki (VvelCSP4; VvelCSP4, read-out: Ki (μM), no binding symbol): > 18 µM
